Legend:
Format in all cases: cell-based
[1] = system: Wnt activity (Sp5-Luc reporter, SW480 colon carcinoma cells); test: Wnt activity screening assay, Sp5-Luc reporter gene in SW480 cells; details: Homo sapiens; for inhibition at 10 µM: SW480, read-out: percent inhibition at 10 μM; for EC50: Sp5-Luc reporter, SW480 cells, overnight incubation
From the text: The screening assay for Wnt activity is described as follows. Reporter cell lines can be generated by stably transducing cancer cell lines (e.g., colon cancer) or primary cells (e.g., IEC-6 intestinal cells) with a lentiviral construct that includes a Wnt-responsive promoter driving expression of the firefly luciferase gene.
SW480 colon carcinoma cells were transduced with a lentiviral vector expressing luciferase with a human Sp5 promoter consisting of a sequence of eight TCF/LEF binding sites. SW480 cells stably expressing the Sp5-Luc reporter gene and a hygromycin resistance gene were selected by treatment with 150 μg/mL of hygromycin for 7 days. These stably transduced SW480 cells were expanded in cell culture and used for all further screening activities. […] For Sp5-Luc reporter gene assays, the cells were plated at 4,000 cells/well in 384-well plates with medium containing 1% fetal bovine serum and incubated overnight at 37° C. and 5% CO2. Following incubation, 20 μl of BrightGlo luminescence reagent (Promega) was added to each well of the 384-well assay plates. The plates were placed on an orbital shaker for 2 min and then luminescence was quantified using the Envision (Perkin Elmer) plate reader. Readings were normalized to DMSO only treated cells, and normalized activities were utilized for EC50 calculations using the dose-response log (inhibitor) vs. response -variable slope (four parameters) nonlinear regression feature available in GraphPad Prism 5.0 (or Dotmatics).

SW480 colon cancer cells = test: Cell viability assay (CellTiter-Blue), SW480 cells, four days; details: Homo sapiens; for EC50: 96 h, SW480 cell viability, four days, CellTiter-Blue; for inhibition at 10 µM: SW480, read-out: percent inhibition at 10 μM
Protocol: Representative compounds were screened using the following assay procedure to assess the effect on cell viability as described below.
Approximately 2×10^3 SW480 colon cancer cells were seeded into each well and allowed to incubate in the presence or absence of compound for four days at 37° C./5% CO2. Eight replicates of DMSO-treated cells served as controls and cells treated with compound were performed in duplicate.
After incubation, 20 μL of CellTiter-Blue (Promega) was added to each well allowed to incubate for approximately 3 hours. This reagent was a buffered solution which contains resazurin, metabolically active cells were able to reduce rezarurin (blue) into resorufin (pink) which was highly fluorescent. This measured fluorescence was used as a readout for cell viability.

[2] = system: primary human fibroblasts derived from IPF patients (LL29 cells) treated with TGF-β1; test: Inhibition of the fibrotic process: αSMA staining in TGF-β1 treated LL29 fibroblasts; details: Fibroblast; for EC50: 96 h, LL29 cells, TGF-β1 20 ng/mL, 4 days, % αSMA positive cells; for inhibition at 10 µM: read-out: percent inhibition at 10 μM
Protocol: Representative compounds were screened using primary human fibroblasts (derived from IPF patients) treated with TGF-β1 to determine their ability to inhibit the fibrotic process.
LL29 cells are plated at 1,500 cells/well in 80 μL/well F12 medium supplemented with 1% Fetal Bovine Serum. […] Wells treated with TGF-β1 and containing DMSO were used as controls. […] Following incubation for 4 days, SYTOX green nucleic acid stain (Life Technologies [Thermo Fisher Scientific]) was added to the wells at a final concentration of 1 μM and incubated at room temperature for 30 min.

[3] = system: IL-6 (THP-1 human monocyte cell line); test: IL-6 inhibition in LPS-stimulated THP-1 cells (HTRF); details: for EC50: IL-6 inhibition, LPS-stimulated THP-1 cells, HTRF; for inhibition at 10 µM: THP-1, read-out: percentage in parentheses beside EC50 >10 (IL-6 inhibition)
Protocol: THP-1 cells were cultured in basal media with 1% FBS for 24 hours before the start of the assay. […] THP-1 cells were plated at 5000 cells/well in the 384-well plates and incubated at 37° C. for 2 h. 500 ng/mL of LPS was added after 2 hours and cells were incubated for another 22 hours at 37° C. Plates were spun in a centrifuge for 1 minute at […] and a mixture of anti-IL6 XL665, and anti-IL6 Cryptate diluted in reconstitution buffer (Cisbio Inc.) was added to each well. Following incubation for 3 hrs at room temperature, Homogeneous Time-Resolved Fluorescence (HTRF) was measured using the Envision (Perkin Elmer) at 665 nm and […]. The ratio of fluorescence at 665 nm to 620 nm was used as a readout for IL6 quantification. All samples were processed in duplicate. Readings were normalized to DMSO treated cells and normalized activities were utilized for EC50 calculations using the dose-response log (inhibitor) vs. response -variable slope (four parameters) nonlinear regression feature available in GraphPad Prism 5.0 (or Dotmatics).

Compound	inhibition at 10 µM [1]	EC50 [1]	EC50 (SW480 colon cancer cells)	inhibition at 10 µM (SW480 colon cancer cells)	EC50 [2]	inhibition at 10 µM [2]	EC50 [3]	inhibition at 10 µM [3]
O=C(Nc1cncc(-c2ccc3[nH]nc(-c4cc5c(-c6ccccc6F)ccnc5[nH]4)c3c2)c1)C1CCCC1 [Compound 78, N-(5-(3-(4-(2-Fluorophenyl)-1H-pyrrolo[2,3-b]pyridin-2-yl)-1H-indazol-5-yl)pyridin-3-yl)cyclopentanecarboxamide]	1.9%	> 10 µM	> 10 µM	14.4%	> 10 µM	39%	> 10 µM	39.9%
CC(C)Nc1cncc(-c2ccc3[nH]nc(-c4cc5c(-c6ccccc6F)ccnc5[nH]4)c3c2)c1 [Compound 68, 5-(3-(4-(2-Fluorophenyl)-1H-pyrrolo[2,3-b]pyridin-2-yl)-1H-indazol-5-yl)-N-isopropylpyridin-3-amine]	18.7%	> 10 µM	> 10 µM	10.9%	> 10 µM	0%	0.384 µM	
CN(C)c1cncc(-c2ccc3[nH]nc(-c4cc5c(N6CCCCC6)ccnc5[nH]4)c3c2)c1 [Compound 175, N,N-Dimethyl-5-(3-(4-(piperidin-1-yl)-1H-pyrrolo[2,3-b]pyridin-2-yl)-1H-indazol-5-yl)pyridin-3-amine]	10.7%	> 10 µM	> 10 µM	13.1%	> 10 µM	11.3%	> 10 µM	15.2%
CCCC(=O)Nc1cncc(-c2ccc3[nH]nc(-c4cc5c(-c6cccs6)ccnc5[nH]4)c3c2)c1 [Compound 353, N-(5-(3-(4-(Thiophen-2-yl)-1H-pyrrolo[2,3-b]pyridin-2-yl)-1H-indazol-5-yl)pyridin-3-yl)butyramide]		0.04 µM	1.3 µM		5.08 µM		> 10 µM	37.5%
CC(C)CC(=O)Nc1cncc(-c2ccc3[nH]nc(-c4cc5c(-c6ccc(F)cc6)ccnc5[nH]4)c3c2)c1 [Compound 30, N-(5-(3-(4-(4-Fluorophenyl)-1H-pyrrolo[2,3-b]pyridin-2-yl)-1H-indazol-5-yl)pyridin-3-yl)-3-methylbutanamide]	13.6%	> 10 µM	> 10 µM	14.9%	> 10 µM	20.2%	> 10 µM	25.3%
O=C(Nc1cncc(-c2ccc3[nH]nc(-c4cc5c(-c6ccc(F)cc6)ccnc5[nH]4)c3c2)c1)c1ccccc1 [Compound 39, N-(5-(3-(4-(4-Fluorophenyl)-1H-pyrrolo[2,3-b]pyridin-2-yl)-1H-indazol-5-yl)pyridin-3-yl)benzamide]	0%	> 10 µM	> 10 µM	24.2%	4.88 µM		> 10 µM	28.4%
O=C(Cc1ccccc1)Nc1cncc(-c2ccc3[nH]nc(-c4cc5c(-c6ccncc6)ccnc5[nH]4)c3c2)c1 [Compound 122, 2-Phenyl-N-(5-(3-(4-(pyridin-4-yl)-1H-pyrrolo[2,3-b]pyridin-2-yl)-1H-indazol-5-yl)pyridin-3-yl)acetamide]	28.3%	> 10 µM	1.95 µM		6.18 µM		> 10 µM	47.3%
Fc1cccc(-c2ccnc3[nH]c(-c4n[nH]c5ccc(-c6ccncc6)cc45)cc23)c1 [Compound 18, 3-(4-(3-Fluorophenyl)-1H-pyrrolo[2,3-b]pyridin-2-yl)-5-(pyridin-4-yl)-1H-indazole]	18%	> 10 µM	> 10 µM	16.2%	> 10 µM	33.6%	0.995 µM	
c1cnc(-c2ccc3[nH]nc(-c4cc5c(-c6ccoc6)ccnc5[nH]4)c3c2)cn1 [Compound 696, 3-(4-(Furan-3-yl)-1H-pyrrolo[2,3-b]pyridin-2-yl)-5-(pyrazin-2-yl)-1H-indazole]		4.15 µM	3.99 µM		2.48 µM		> 10 µM	43.3%
CC(C)(C)CC(=O)Nc1cncc(-c2ccc3[nH]nc(-c4cc5c(N6CCCCC6)ccnc5[nH]4)c3c2)c1 [Compound 184, 3,3-Dimethyl-N-(5-(3-(4-(piperidin-1-yl)-1H-pyrrolo[2,3-b]pyridin-2-yl)-1H-indazol-5-yl)pyridin-3-yl)butanamide]	11.9%	> 10 µM	> 10 µM	1.6%	> 10 µM		3.99 µM	
Fc1cccc(-c2ccnc3[nH]c(-c4n[nH]c5ccc(-c6cncc(CN7CCC(F)(F)C7)c6)cc45)cc23)c1 [Compound 26, 5-(5-((3,3-Difluoropyrrolidin-1-yl)methyl)pyridin-3-yl)-3-(4-(3-fluorophenyl)-1H-pyrrolo[2,3-b]pyridin-2-yl)-1H-indazole]	49%	> 10 µM	> 10 µM	40.6%	1.96 µM		0.285 µM	
CC(C)(C)CC(=O)Nc1cncc(-c2ccc3[nH]nc(-c4cc5c(-c6ccccc6F)ccnc5[nH]4)c3c2)c1 [Compound 72, N-(5-(3-(4-(2-Fluorophenyl)-1H-pyrrolo[2,3-b]pyridin-2-yl)-1H-indazol-5-yl)pyridin-3-yl)-3,3-dimethylbutanamide]	9.3%	> 10 µM	> 10 µM	12.6%	> 10 µM	5.4%	> 10 µM	10.5%
CCC(=O)Nc1cncc(-c2ccc3[nH]nc(-c4cc5c(-c6ccccn6)ccnc5[nH]4)c3c2)c1 [Compound 141, N-(5-(3-(4-(Pyridin-2-yl)-1H-pyrrolo[2,3-b]pyridin-2-yl)-1H-indazol-5-yl)pyridin-3-yl)propionamide]		0.238 µM	6.07 µM		1.66 µM		> 10 µM	30.3%
c1cc(N2CCCCC2)c2cc(-c3n[nH]c4ccc(-c5cn[nH]c5)cc34)[nH]c2n1 [Compound 603, 3-(4-(Piperidin-1-yl)-1H-pyrrolo[2,3-b]pyridin-2-yl)-5-(1H-pyrazol-4-yl)-1H-indazole]		0.181 µM	0.296 µM		0.304 µM		0.663 µM	
CCCC(=O)Nc1cncc(-c2ccc3[nH]nc(-c4cc5c(-c6ccc(F)cc6)ccnc5[nH]4)c3c2)c1 [Compound 45, N-(5-(3-(4-(4-Fluorophenyl)-1H-pyrrolo[2,3-b]pyridin-2-yl)-1H-indazol-5-yl)pyridin-3-yl)butyramide]	11%	> 10 µM	> 10 µM	30.7%	5.24 µM		> 10 µM	25.8%
CN(C)Cc1cncc(-c2ccc3[nH]nc(-c4cc5c(-c6cccs6)ccnc5[nH]4)c3c2)c1 [Compound 349, N,N-Dimethyl-1-(5-(3-(4-(thiophen-2-yl)-1H-pyrrolo[2,3-b]pyridin-2-yl)-1H-indazol-5-yl)pyridin-3-yl)methanamine]		3.85 µM	4.64 µM		0.874 µM		0.091 µM	

Reference: patent US10350199B2, “3-(1h-pyrrolo[2,3-b]pyridin-2-yl)-1h-indazoles and therapeutic uses thereof” (Samumed, LLC, priority 2015, dated 2019)
